Biological target: PI3Kβ (Homo sapiens (Human), UniProt P42338)
Assay: PI3K isoform TR-FRET enzymatic assay (PI3Kβ)
Type: biochemical
Conditions: 2× Km ATP, 30 minutes at 25° C.
Summary of the method: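 Heterodimeric recombinant PI3Kβ was incubated with compound 30 minutes at 25° C. Product was detected by TR-FRET competition with 10 nM labeled PIP3 for 35 nM Eu-GRP-1 PH domain after EDTA stop. Data were normalized to 1 μM wortmannin and DMSO, and IC50 was taken from a four-parameter fit.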

PI3Kβ, sequence (P42338 whole entry, canonical isoform): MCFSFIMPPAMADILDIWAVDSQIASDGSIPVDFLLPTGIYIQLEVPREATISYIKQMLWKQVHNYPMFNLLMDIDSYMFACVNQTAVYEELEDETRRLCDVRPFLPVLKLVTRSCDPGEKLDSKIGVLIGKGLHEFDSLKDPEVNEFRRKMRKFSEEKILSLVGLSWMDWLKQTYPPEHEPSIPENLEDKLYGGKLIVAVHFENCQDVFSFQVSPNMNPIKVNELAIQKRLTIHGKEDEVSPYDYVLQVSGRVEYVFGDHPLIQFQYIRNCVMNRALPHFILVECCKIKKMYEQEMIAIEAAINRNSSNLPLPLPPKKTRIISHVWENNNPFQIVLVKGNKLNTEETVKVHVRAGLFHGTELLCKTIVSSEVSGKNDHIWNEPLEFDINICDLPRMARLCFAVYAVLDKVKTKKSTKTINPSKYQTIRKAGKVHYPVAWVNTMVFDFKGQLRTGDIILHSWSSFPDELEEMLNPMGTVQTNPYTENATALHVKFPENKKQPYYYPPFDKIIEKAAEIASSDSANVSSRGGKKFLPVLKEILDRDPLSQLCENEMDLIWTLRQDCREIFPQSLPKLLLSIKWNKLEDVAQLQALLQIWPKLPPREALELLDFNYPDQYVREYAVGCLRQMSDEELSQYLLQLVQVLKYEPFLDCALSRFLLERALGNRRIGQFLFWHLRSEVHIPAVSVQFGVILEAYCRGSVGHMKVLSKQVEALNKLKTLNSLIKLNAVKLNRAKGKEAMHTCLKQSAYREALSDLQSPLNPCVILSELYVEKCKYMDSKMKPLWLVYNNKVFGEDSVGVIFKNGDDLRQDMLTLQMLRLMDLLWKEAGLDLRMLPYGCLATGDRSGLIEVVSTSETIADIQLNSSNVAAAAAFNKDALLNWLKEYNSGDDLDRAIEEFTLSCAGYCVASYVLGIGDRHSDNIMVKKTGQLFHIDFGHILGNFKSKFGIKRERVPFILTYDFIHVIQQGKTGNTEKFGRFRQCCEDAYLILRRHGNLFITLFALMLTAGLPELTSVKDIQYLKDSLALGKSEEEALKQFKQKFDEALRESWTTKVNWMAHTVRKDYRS
PI3Kβ, sequence (P27986 whole entry partner, canonical isoform): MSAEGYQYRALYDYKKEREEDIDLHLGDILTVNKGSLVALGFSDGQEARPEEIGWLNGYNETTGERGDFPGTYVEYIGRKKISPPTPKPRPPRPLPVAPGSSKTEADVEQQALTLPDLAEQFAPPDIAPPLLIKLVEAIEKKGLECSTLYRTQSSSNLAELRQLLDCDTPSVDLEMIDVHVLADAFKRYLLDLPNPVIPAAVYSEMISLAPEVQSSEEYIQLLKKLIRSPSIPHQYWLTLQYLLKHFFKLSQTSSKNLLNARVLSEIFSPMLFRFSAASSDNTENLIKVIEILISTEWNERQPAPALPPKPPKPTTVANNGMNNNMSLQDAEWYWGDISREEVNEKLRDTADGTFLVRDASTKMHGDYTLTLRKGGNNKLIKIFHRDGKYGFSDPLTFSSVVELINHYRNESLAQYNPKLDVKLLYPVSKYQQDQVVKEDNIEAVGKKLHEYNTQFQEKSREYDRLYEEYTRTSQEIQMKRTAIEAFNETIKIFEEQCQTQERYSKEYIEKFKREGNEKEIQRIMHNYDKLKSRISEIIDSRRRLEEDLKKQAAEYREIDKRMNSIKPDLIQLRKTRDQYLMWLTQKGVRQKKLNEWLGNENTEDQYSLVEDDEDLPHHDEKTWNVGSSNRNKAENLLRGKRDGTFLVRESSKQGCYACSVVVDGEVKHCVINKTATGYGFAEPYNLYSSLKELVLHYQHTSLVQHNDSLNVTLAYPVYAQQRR

SMILES	IC50 [nM]
CCc1nc2c(-c3nnc[nH]3)cc(N3CCOCC3)cc2n1-c1ccnc2c(F)ccc(F)c12 [Example 125, 4-[3-(5,8-difluoroquinolin-4-yl)-2-ethyl-7-(4H-1,2,4-triazol-3-yl)benzimidazol-5-yl]morpholine]	16
Cc1cccc2nccc(-n3cnc4c(-c5nnc[nH]5)cc(N5CCOCC5)cc43)c12 [Example 127, 4-[3-(5-methylquinolin-4-yl)-7-(4H-1,2,4-triazol-3-yl)benzimidazol-5-yl]morpholine]	23
Cc1nnc(-c2cc(N3CCOCC3)cc3c2nc(C)n3-c2ccnc3c(Cl)cccc23)[nH]1 [Example 129, 4-[3-(8-chloroquinolin-4-yl)-2-methyl-7-(5-methyl-4H-1,2,4-triazol-3-yl)benzimidazol-5-yl]morpholine]	23
Cc1nnc(-c2cc(N3CCOCC3)cc3c2nc(C)n3-c2ccnc3c(F)cccc23)[nH]1 [Example 130, 4-[3-(8-fluoroquinolin-4-yl)-2-methyl-7-(5-methyl-4H-1,2,4-triazol-3-yl)benzimidazol-5-yl]morpholine]	87
Clc1cccc2c(-n3c(C4CNC4)nc4c(-c5nnc[nH]5)cc(N5CCOCC5)cc43)ccnc12 [Example 132, 4-[2-(azetidin-3-yl)-3-(8-chloroquinolin-4-yl)-7-(4H-1,2,4-triazol-3-yl)benzimidazol-5-yl]morpholine]	380
CCc1nc2c(-c3nnc(C)[nH]3)cc(N3CCOCC3)cc2n1-c1ccnc2c(Cl)cccc12 [Example 133, 4-[3-(8-chloroquinolin-4-yl)-2-ethyl-7-(5-methyl-4H-1,2,4-triazol-3-yl)benzimidazol-5-yl]morpholine]	21
Cc1nnc(-c2cc(N3CCOCC3)cc3c2ncn3-c2ccnc3c(Cl)cccc23)[nH]1 [Example 134, 4-[3-(8-chloroquinolin-4-yl)-7-(5-methyl-4H-1,2,4-triazol-3-yl)benzimidazol-5-yl]morpholine]	16
Cc1nc2c(-c3nnc(C4CC4)[nH]3)cc(N3CCOCC3)cc2n1-c1ccnc2c(Cl)cccc12 [Example 135, 4-[3-(8-chloroquinolin-4-yl)-7-(5-cyclopropyl-4H-1,2,4-triazol-3-yl)-2-methylbenzimidazol-5-yl]morpholine]	43
Cc1nc2c(-c3nnc(C(F)(F)F)[nH]3)cc(N3CCOCC3)cc2n1-c1ccnc2c(Cl)cccc12 [Example 136, 4-[3-(8-chloroquinolin-4-yl)-2-methyl-7-[5-(trifluoromethyl)-4H-1,2,4-triazol-3-yl]benzimidazol-5-yl]morpholine]	48
CCc1nnc(-c2cc(N3CCOCC3)cc3c2nc(C)n3-c2ccnc3c(Cl)cccc23)[nH]1 [Example 137, 4-[3-(8-chloroquinolin-4-yl)-7-(5-ethyl-4H-1,2,4-triazol-3-yl)-2-methylbenzimidazol-5-yl]morpholine]	17
Cc1nc2c(-c3nnc(C(C)C)[nH]3)cc(N3CCOCC3)cc2n1-c1ccnc2c(Cl)cccc12 [Example 138, 4-[3-(8-chloroquinolin-4-yl)-2-methyl-7-(5-propan-2-yl-4H-1,2,4-triazol-3-yl)benzimidazol-5-yl]morpholine]	140
Fc1ccc2c(-n3c(C4CC4)nc4c(-c5nnc[nH]5)cc(N5CCOCC5)cc43)ccnc2c1F [Example 143, 4-[2-cyclopropyl-3-(7,8-difluoroquinolin-4-yl)-7-(4H-1,2,4-triazol-3-yl)benzimidazol-5-yl]morpholine]	84
CCCc1nc2c(-c3nnc[nH]3)cc(N3CCOCC3)cc2n1-c1ccnc2c(F)cc(F)cc12 [Example 146, 4-[3-(6,8-difluoroquinolin-4-yl)-2-propyl-7-(4H-1,2,4-triazol-3-yl)benzimidazol-5-yl]morpholine]	101
Fc1c(N2CCOCC2)cc(-c2nnc[nH]2)c2ncn(-c3ccnc4c(Cl)cccc34)c12 [Example 149, 4-(1-(8-chloroquinolin-4-yl)-7-fluoro-4-(4H-1,2,4-triazol-3-yl)-1H-benzo[d]imidazol-6-yl)morpholine]	100
Cc1nc2c(-c3nnc[nH]3)cc(N3CCOCC3)c(F)c2n1-c1ccnc2c(Cl)ccc(F)c12 [Example 150, 4-(1-(8-chloro-5-fluoroquinolin-4-yl)-7-fluoro-2-methyl-4-(4H-1,2,4-triazol-3-yl)-1H-benzo[d]imidazol-6-yl)morpholine]	27
Cc1nnc(-c2cc(N3CCOCC3)cc3c2nc(C)n3-c2ccnc3c(Cl)ccc(Cl)c23)[nH]1 [Example 151, 4-(1-(5,8-dichloroquinolin-4-yl)-2-methyl-4-(5-methyl-4H-1,2,4-triazol-3-yl)-1H-benzo[d]imidazol-6-yl)morpholine]	44
CCc1nc2c(-c3nnc(C)[nH]3)cc(N3CCOCC3)cc2n1-c1ccnc2c(F)ccc(F)c12 [Example 152, 4-(1-(5,8-difluoroquinolin-4-yl)-2-ethyl-4-(5-methyl-4H-1,2,4-triazol-3-yl)-1H-benzo[d]imidazol-6-yl)morpholine]	59
CCc1nc2c(-c3nnc[nH]3)cc(N3CCOCC3)cc2n1-c1c(C)cnc2c(C#N)cccc12 [Example 155, 4-(2-ethyl-6-morpholino-4-(4H-1,2,4-triazol-3-yl)-1H-benzo[d]imidazol-1-yl)-3-methylquinoline-8-carbonitrile]	20
Cc1nnc(-c2cc(N3CCOCC3)cc3c2nc(C)n3-c2c(Cl)cnc3c(Cl)cccc23)[nH]1 [Example 157, 4-(1-(3,8-dichloroquinolin-4-yl)-2-methyl-4-(5-methyl-4H-1,2,4-triazol-3-yl)-1H-benzo[d]imidazol-6-yl)morpholine]	47
Cc1cc(-n2c(C)nc3c(-c4nnn[nH]4)cc(N4CCOCC4)cc32)c2ccccc2n1 [Example 160, 4-(2-methyl-1-(2-methylquinolin-4-yl)-4-(1H-tetrazol-5-yl)-1H-benzo[d]imidazol-6-yl)morpholine]	470
Cc1nc2c(-c3nnn[nH]3)cc(N3CCOCC3)cc2n1-c1ccnc2c(Cl)cccc12 [Example 161]	23
Cc1nc2c(-c3nnco3)cc(N3CCOCC3)cc2n1-c1ccnc2c(Cl)cccc12 [Example 162, 4-(1-(8-chloroquinolin-4-yl)-2-methyl-4-(1,3,4-oxadiazol-2-yl)-1H-benzo[d]imidazol-6-yl)morpholine]	77

The remaining lines, values ahead:

IC50 [nM]	SMILES
9	Cc1ccc(F)c2c(-n3c(C)nc4c(-c5nnc[nH]5)cc(N5CCOCC5)cc43)ccnc12 [Example 124, 4-[3-(5-fluoro-8-methylquinolin-4-yl)-2-methyl-7-(4H-1,2,4-triazol-3-yl)benzimidazol-5-yl]morpholine]
21	Cc1nc2c(-c3nnc[nH]3)cc(N3CCOCC3)cc2n1-c1ccnc2c(F)ccc(Cl)c12 [Example 126, 4-[3-(5-chloro-8-fluoroquinolin-4-yl)-2-methyl-7-(4H-1,2,4-triazol-3-yl)benzimidazol-5-yl]morpholine]
51	Cc1nc2c(-c3nnc[nH]3)cc(N3CCOCC3)cc2n1-c1c(Cl)cnc2ccccc12 [Example 128, 4-[3-(3-chloroquinolin-4-yl)-2-methyl-7-(4H-1,2,4-triazol-3-yl)benzimidazol-5-yl]morpholine]
46	Cc1nc2c(-c3nnc[nH]3)cc(N3CCOCC3)cc2n1-c1ccnc2cc(F)cc(F)c12 [Example 131, 4-[3-(5,7-difluoroquinolin-4-yl)-2-methyl-7-(4H-1,2,4-triazol-3-yl)benzimidazol-5-yl]morpholine]
14	CCc1nc2c(-c3nnc[nH]3)cc(N3CCOCC3)cc2n1-c1ccnc2c(F)cccc12 [Example 139, 4-[2-ethyl-3-(8-fluoroquinolin-4-yl)-7-(4H-1,2,4-triazol-3-yl)benzimidazol-5-yl]morpholine]
13	Cc1nc2c(-c3nnc[nH]3)cc(N3CCOCC3)cc2n1-c1ccnc2c(F)cccc12 [Example 140, 4-[3-(8-fluoroquinolin-4-yl)-2-methyl-7-(4H-1,2,4-triazol-3-yl)benzimidazol-5-yl]morpholine]
10	CCCc1nc2c(-c3nnc[nH]3)cc(N3CCOCC3)cc2n1-c1ccnc2c(F)cccc12 [Example 141, 4-[3-(8-fluoroquinolin-4-yl)-2-propyl-7-(4H-1,2,4-triazol-3-yl)benzimidazol-5-yl]morpholine]
15	Cc1nc2c(-c3nnc[nH]3)cc(N3CCOCC3)cc2n1-c1ccnc2c(F)c(F)ccc12 [Example 142, 4-[3-(7,8-difluoroquinolin-4-yl)-2-methyl-7-(4H-1,2,4-triazol-3-yl)benzimidazol-5-yl]morpholine]
65	Fc1cccc2c(-n3c(C4CC4)nc4c(-c5nnc[nH]5)cc(N5CCOCC5)cc43)ccnc12 [Example 144, 4-[2-cyclopropyl-3-(8-fluoroquinolin-4-yl)-7-(4H-1,2,4-triazol-3-yl)benzimidazol-5-yl]morpholine]
56	Cc1nc2c(-c3nnc[nH]3)cc(N3CCOCC3)cc2n1-c1ccnc2c(F)cc(F)cc12 [Example 145, 4-[3-(6,8-difluoroquinolin-4-yl)-2-methyl-7-(4H-1,2,4-triazol-3-yl)benzimidazol-5-yl]morpholine]
120	Cc1nc2c(-c3nnc[nH]3)cc(N3CCOCC3)cc2n1-c1c(F)cnc2ccccc12 [Example 153, 4-(1-(3-fluoroquinolin-4-yl)-2-methyl-4-(4H-1,2,4-triazol-3-yl)-1H-benzo[d]imidazol-6-yl)morpholine]
2200	Cc1nnc(-c2cc(N3CCOCC3)cc3c2nc(C)n3-c2c(F)cnc3ccccc23)[nH]1 [Example 154, 4-(1-(3-fluoroquinolin-4-yl)-2-methyl-4-(5-methyl-4H-1,2,4-triazol-3-yl)-1H-benzo[d]imidazol-6-yl)morpholine]
20	Cc1cnc2c(C#N)cccc2c1-n1c(C)nc2c(-c3nnc[nH]3)cc(N3CCOCC3)cc21 [Example 156, 3-methyl-4-(2-methyl-6-morpholino-4-(4H-1,2,4-triazol-3-yl)-1H-benzo[d]imidazol-1-yl)quinoline-8-carbonitrile]
